Measured values reported in publication PMC10779255, “Novel Hydroxamic Acids Containing Aryl-Substituted 1,2,4- or 1,3,4-Oxadiazole Backbones and an Investigation of Their Antibiotic Potentiation Activity” (International Journal of Molecular Sciences, 2023).
Entries after “also recorded” stand apart in the source; their conditions may differ.

Tests used:
E. coli MG1655 = assay: Growth curves of E. coli MG1655 with antibiotics, with or without LpxC inhibitors (antibiotic potentiation); assay type: cell-based, Escherichia coli; conditions: for Activity: combined action together with the antibiotic, marking used for QSAR; for potentiation of kanamycin (sensitivity of cells): kanamycin 0.62 μM; for potentiation of kanamycin (sensitivity of cells) / potentiation of rifampicin (sensitivity of cells): inhibitor 50 or 100 µM; for potentiation of kanamycin (sensitivity of cells) / potentiating activity with nalidixic acid (growth inhibition) / potentiation of rifampicin (sensitivity of cells): OD600 growth curves; for potentiating activity with nalidixic acid (growth inhibition): nalidixic acid 17.22 μM, inhibitor 50–100 µM; for potentiation of rifampicin (sensitivity of cells): rifampicin 6.08 μM; for bacteriostatic effect in the first 10 h of incubation: with antibiotic, resumption of culture growth observed subsequently; on Activity: key: active (1); inactive (0)
Experimental: (§1) Escherichia coli strain MG1655 and Pseudomonas aeruginosa strain ATCC 27853 were obtained from the American Type Culture Collection (ATCC; Rockville, MD, USA). Subculturing and inoculum preparation were prepared according to the Clinical and Laboratory Standards Institute (CLSI) recommended method, M7-A9 [42], using MHA and MHB.
Growth curves were obtained with a Bioscreen C automated growth analysis system. Cultures of E. coli MG1655 were grown overnight at 37 °C, diluted 1:100 in fresh medium, inoculated into honeycomb wells in triplicate, and grown at 37 °C with maximum shaking using the platform of the Bioscreen C instrument. […] OD600 values were recorded automatically at specified times, and the means of the triplicate cultures were plotted.

[1] = Cytotoxicity assay (Alamar Blue); assay type: cell-based; conditions: human, HEK293 cells, 72 h exposure, mean ± SD, at least 3 independent experiments
Experimental: (§2) The HEK293 cell line was obtained from the ECACC (European Collection of Authenticated Cell Cultures, cat. 85120602, Salisbury, UK). The cells were grown in monolayer culture in Dulbecco’s Modified Eagle Medium (DMEM) (PanEco, Moscow, Russia) supplemented with 2 mM of L-glutamine, 1% penicillin/streptomycin (Capricorn Scientific, Ebsdorfergrund, Germany), and 10% heat-inactivated fetal bovine serum (HyClone, Cytiva, Pasching, Austria) in a humidified atmosphere of 5% CO2 and at 37 °C (Binder, Tuttlingen, Germany). For analysis, the HEK293 cells were seeded into a 96-well plate (Corning Incorporated, Corning, NY, USA) in 100 μL of complete culture medium at a final concentration of 1 × 10^4 cells/well and cultured for 24 h for proper attachment. Subsequently, the medium was removed, and cells were exposed to the test inhibitor with different concentrations for 72 h in 100 μL of fresh complete culture medium. The sensitivity of the cells to test inhibitor molecules was detected using the vital dye Alamar Blue (Invitrogen, Carlsbad, CA, USA). The Alamar Blue assay was performed according to the procedure described by O’Brien et al.. After incubation with test inhibitor molecules, 10 μL of Alamar Blue reagent was added to each well, cell culture plates were returned to a humidified incubator, and the fluorescence was read after 3 h. The plates were exposed to an excitation wavelength of 545 nm, and the emission at 600 nm was measured with the CLARIOstar Plus (BMG Labtech, Ortenberg, Germany, Software Version 5.70 R2). To determine corresponding 50% cellular cytotoxicity (CC50) values, a four-parameter sigmoidal fit curve model (GraphPad Prism 8 software) was used to measure the data.

P. aeruginosa ATCC 27853 = assay: MIC (broth microdilution) and growth curves of antibiotics in combination with 9c or 9d; assay type: cell-based, Pseudomonas aeruginosa; conditions: for time of growth inhibition in combination with nalidixic acid: 50 μM of compound + 2.15 μM nalidixic acid, growth curves; for MIC: Pseudomonas aeruginosa, ATCC27853, read-out: MIC of nalidixic acid in the presence of compound; for P. aeruginosa ATCC 27853 growth in combination with antibiotics: with nalidixic acid or rifampicin
Experimental: as §1
Minimum inhibitory concentrations (MICs) for rifampicin and nalidixic acid were determined via the modified broth microdilution method in triplicate according to CLSI guidelines M7-A9 and M100-A30 [43]. The antibiotics were serially diluted twofold in 100 μL of MHB. The bacteria inoculum was 100 μL of a 1.0 × 10^6 CFU/mL dilution in MHB. MICs for antibiotics in the presence of 9c or 9d were determined with the same method.
MIC endpoints were read after 24 h of incubation with an iMark microplate absorbance reader (Bio-Rad, Hercules, CA, USA). Growth curves of P. aeruginosa ATCC 27853 in the presence of rifampicin/nalidixic acid and 9c/9d were obtained using a multifunction microplate reader, SuperMax 3100 (ShanghaiFlash, Shanghai, China). Cells were grown in triplicate at 37 °C with aeration.

HEK293 cell line = assay: Cytotoxicity assay (Alamar Blue); assay type: cell-based; conditions: HEK293 cells, 72 h exposure, mean ± SD, at least 3 independent experiments
Experimental: as §2

E. coli LpxC = conditions: cited from earlier work

Compound	Activity (E. coli MG1655)	potentiation of kanamycin (sensitivity of cells) (E. coli MG1655)	potentiating activity with nalidixic acid (growth inhibition) (E. coli MG1655)	potentiation of rifampicin (sensitivity of cells) (E. coli MG1655)	bacteriostatic effect in the first 10 h of incubation (E. coli MG1655)	CC50 at 72 h [1] [µM]	decrease of MIC of rifampicin (P. aeruginosa ATCC 27853; 25 μM of compound)	reduction of MIC of nalidixic acid (P. aeruginosa ATCC 27853; 25 μM of compound)	MIC of rifampicin in the presence of compound (P. aeruginosa ATCC 27853; 50 μM of compound) [µM]	reduction of MIC of nalidixic acid (P. aeruginosa ATCC 27853; 50 μM of compound)	reduction of MIC of rifampicin (P. aeruginosa ATCC 27853; 50 μM of compound) [times]	time of growth inhibition in combination with nalidixic acid (P. aeruginosa ATCC 27853) [h]	MIC of rifampicin in the presence of compound (P. aeruginosa ATCC 27853; 100 μM of compound) [µM]	decrease of MIC of nalidixic acid (P. aeruginosa ATCC 27853; 100 μM of compound)	reduction of MIC of rifampicin (P. aeruginosa ATCC 27853; 100 μM of compound) [times]	MIC (P. aeruginosa ATCC 27853; 100 μM of compound) [µM]	P. aeruginosa ATCC 27853 growth in combination with antibiotics (P. aeruginosa ATCC 27853)	melting point	CC50 (HEK293) (HEK293 cell line)	inhibition of E. coli LpxC (E. coli LpxC)
O=C(Cc1nc(-c2cc(F)c(F)c(F)c2)no1)NO [Compound 9c]	1	greatest effectiveness; also recorded: greatest potentiating activity	greatest potentiating activity	greatest effectiveness; also recorded: greatest potentiating activity	powerful bacteriostatic effect	189 ± 29.5	twofold	two times	0.08	four times	64	≤ 14	0.08	approximately eight-fold	64	2.15	significantly reduced; also recorded: best results	159.2 °C (dec.)	–	–
Cc1cccc(-c2noc(CC(=O)NO)n2)c1 [Compound 9d]	1	greatest potentiating activity	greatest potentiating activity	greatest potentiating activity	powerful bacteriostatic effect	176 ± 17.8	inactive	ineffective	0.08	four times	64	≤ 8	0.08	approximately eight-fold	64	2.15	significantly reduced; also recorded: best results	165.4 °C (dec.)	–	–
Cn1c(-c2nnc(C(=O)NO)o2)cc2ccccc21 [Compound 36]	1	completely ineffective	inhibited bacterial growth less effectively; also recorded: weak potentiating activity	completely ineffective	–	132 ± 23.7	–	–	–	–	–	–	–	–	–	–	–	198 °C (dec.)	increased toxicity	–
CCCc1cc(C2=N[C@@H](C(=O)NO)CO2)cc(OC)c1OC [L-161,240]	–	–	–	–	–	–	–	–	–	–	–	–	–	–	–	–	–	–	–	potent inhibitors
